Data from PMC10242655, “Syringin inhibits endogenous volume regulated anion channel currents of HEK293 cells in hypotonic circumstances” (Pharmacology Research & Perspectives, 2023).

Biological target: T1, VRAC (LRRC8A) (Homo sapiens, UniProt Q8IWT6)
T1 construct: endogenous VRAC channels of wild-type HEK293 cells; with at least one other LRRC8 subunit (LRRC8B-E; composition not determined)
T1 sequence (Q8IWT6 1-810): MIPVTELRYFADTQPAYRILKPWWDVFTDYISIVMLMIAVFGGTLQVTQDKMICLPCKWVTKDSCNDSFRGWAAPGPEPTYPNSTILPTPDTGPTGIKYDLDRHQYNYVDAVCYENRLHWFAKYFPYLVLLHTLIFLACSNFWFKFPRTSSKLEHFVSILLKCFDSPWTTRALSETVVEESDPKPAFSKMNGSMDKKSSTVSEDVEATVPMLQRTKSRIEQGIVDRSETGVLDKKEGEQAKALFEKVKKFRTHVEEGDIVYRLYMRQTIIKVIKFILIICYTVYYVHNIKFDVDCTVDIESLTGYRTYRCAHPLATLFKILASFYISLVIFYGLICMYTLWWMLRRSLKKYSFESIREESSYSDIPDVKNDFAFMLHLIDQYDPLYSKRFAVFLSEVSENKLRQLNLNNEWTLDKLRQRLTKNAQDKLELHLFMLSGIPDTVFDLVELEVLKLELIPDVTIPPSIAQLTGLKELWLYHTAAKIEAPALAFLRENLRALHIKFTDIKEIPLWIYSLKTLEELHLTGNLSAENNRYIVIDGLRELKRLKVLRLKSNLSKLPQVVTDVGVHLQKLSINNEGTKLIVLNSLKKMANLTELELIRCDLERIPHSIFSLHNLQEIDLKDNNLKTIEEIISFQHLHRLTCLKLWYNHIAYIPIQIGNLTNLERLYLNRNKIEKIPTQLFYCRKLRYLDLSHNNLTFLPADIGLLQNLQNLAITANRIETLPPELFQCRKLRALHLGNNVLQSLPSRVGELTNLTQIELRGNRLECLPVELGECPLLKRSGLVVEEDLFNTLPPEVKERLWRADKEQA
Assay: whole-cell patch clamp of hypotonicity-induced VRAC currents in HEK293; I/I0 […] at […]
Assay type: cell-based

With COc1cc(/C=C/CO)cc(OC)c1O[C@@H]1O[C@H](CO)[C@@H](O)[C@H](O)[C@H]1O [Syringin, 4‐[(1E)‐3‐hydroxyprop‐1‐en‐1‐yl]‐2,6‐dimethoxyphenyl β‐D‐glucopyranoside] the “whole-cell patch clamp of hypotonicity-induced VRAC currents in HEK293; I/I0 0.6” value was “I/I0 0.61 ± 0.02 at 100 μM”.
